Measurements taken from US20100048536A1, “Novel Substituted Diaryl Azepine Derivatives as Integrin Ligands” (priority 2000, published 2010).

Target: T1, integrin αvβ3 (Homo sapiens, UniProt P05106+P06756)
T1 construct: from tissue; host or cells: human placenta
Experiment: Integrin αvβ3 assay (competition with vitronectin for binding to solid phase-bound integrin αvβ3)
Conditions: integrin αvβ3 from human placenta, qualitative ranking only
Procedure: For the identification and assessment of integrin αvβ3 ligands, a test system was used which was based on competition between the natural integrin αvβ3 ligand vitronectin and the test substance for binding to solid phase-bound integrin αvβ3
• Microtiter plates coated with 250 ng/ml of integrin αvβ3 in 0.05 M NaHCO3 pH 9.2; 0.1 ml/well; • saturation with 1% powdered milk/assay buffer; 0.3 ml/well; 0.5 h/RT • 3× washing with 0.05% Tween 20/assay buffer • test substance in 0.1% powdered milk/assay buffer, 50 μl/well+0 μg/ml or 2 μg/ml of human vitronectin (Boehringer Ingelheim T007) in 0.1% powdered milk/assay buffer, 50 μl/well; 1 h/RT • 3× washing with 0.05% Tween 20/assay buffer • 1 μg/ml of anti human vitronectin antibody coupled to peroxidase (Kordia SAVN-APHRP) in 0.1% powdered milk/assay buffer; 0.1 ml/well; 1 h/RT • 3× washing with 0.05% Tween 20/assay buffer • 0.1 ml/well of peroxidase substrate • stop reaction with 0.1 ml/well of 2 M H2SO4 • measurement of the absorption at 450 nm
Integrin αvβ3: Human placenta is solubilized with Nonidet and integrin αvβ3 affinity-purified on a GRGDSPK matrix (elution with EDTA). Impurities due to integrin αIIbβ3 and human serum albumin, and the detergent and EDTA are removed by anion-exchange chromatography. […]

CN1C(=O)c2ccccc2C(CC(=O)O)c2ccc(OCCCCNc3ccccn3)cc21 (stereo not shown) [Example I, {5-Methyl-6-oxo-3-{4-(2-pyridinylamino)-butoxy]-6,11-dihydro 5H-dibenzo[b,e]azepin-11-yl}acetic acid]
IC50 values (concentration of the ligand at which 50% of the ligand is displaced): best result
